According to publication PMC3755750 (Cancer chemotherapy and pharmacology, 2013):
Read-outs that look alike come from different tables or passages of the source. Each block holds one molecule with its values, some of them ahead of it.

Legend:
[1] = test system: CYP3A4; conditions: human liver microsomes; cited from earlier work
[2] = test system: P-glycoprotein (P-gp); conditions: in vitro; cited from earlier work
[3] = iv dosing; cited from earlier work
[4] = test system: CYP2C19; conditions: human liver microsomes; cited from earlier work
[5] = cited from earlier work; for Fa, fraction absorbed / Bioavailability / Fraction of dose absorbed: mice; for Fa, fraction absorbed: fixed in the PBPK model; for Bioavailability: oral
[6] = concomitant CYP3A4 inhibitor ketoconazole; cited from earlier work
[7] = test system: CYP2D6; conditions: human liver microsomes; cited from earlier work
[8] = format: in vivo, mice (BALB/c, CB17 SCID, tumor-bearing CB17 SCID); conditions: for Tmax: BALB/c, mouse, po; for Dose proportionality of Cmax in plasma and tissues: across mouse strains, sorafenib: all tissues except the tumor; for ka, absorption rate constant: fitted to Study#1 data, then fixed
[9] = ref Pubchem Compound; cited from earlier work
[10] = cited from earlier work
[11] = CB17-SCID, plasma and most tissues

Tmax ([8]; CB17-SCID, GI tract): 1 h
Tmax [8, 11]: 6 h
Kf, partition coefficient adipose ([8]; PBPK population mean, mice): 0.624
Kmu, partition coefficient muscle ([8]; PBPK population mean, mice): 0.356
Ksk, partition coefficient skin ([8]; PBPK population mean, mice): 0.361
Clint, hepatic clearance ([8]; PBPK population mean, oral dosing, mice): 6.64 mL/h
Dose proportionality of Cmax in plasma and tissues [8]: dose-proportional
ka, absorption rate constant [8]: 3.83 h⁻¹
Time detected in plasma and all tissues after the last dose ([8]; oral dosing): up to 24 h
Increase in tumor exposure ([8]; twofold increase in sorafenib dose): tenfold
Structure (SMILES): CNC(=O)c1cc(Oc2ccc(NC(=O)Nc3ccc(Cl)c(C(F)(F)F)c3)cc2)ccn1 [sorafenib, Sorafenib]
CYP3A4 inhibition [1]: moderate inhibitor
P-gp substrate character [2]: weak P-glycoprotein (P-gp) substrate
Partition coefficient K for brain, calculated [3]: 0.02
CYP2C19 inhibition [4]: moderate inhibitor
Dose proportionality in Cmax and AUC ([5]; CD-1 mice, at the doses tested): dose proportionality
Terminal half-life ([5]; CD-1 mice): 3.2 to 4.2 h
Tmax ([5]; CD-1 mice): 1 to 1.6 h
Fa, fraction absorbed [5]: 0.920
Bioavailability [5]: 80%
Fraction of dose absorbed [5]: 92%
Change in Cmax and exposure, adverse events [6]: lack of clinically relevant adverse events or change in Cmax and exposure
CYP2D6 inhibition [7]: moderate inhibitor

Tmax [8, 11]: 1 h
Tmax ([8]; adipose and skin, 5 mg/kg): ≤ 6 h
Kbr, partition coefficient brain ([8]; PBPK population mean, mice): 0.018
Kmu, partition coefficient muscle ([8]; PBPK population mean, mice): 0.105
Ksp, partition coefficient spleen ([8]; PBPK population mean, mice): 0.361
Dose proportionality of Cmax in plasma and tissues [8]: dose-proportional
ka, absorption rate constant [8]: 9.45 h⁻¹
Time detected in plasma and all tissues after the last dose ([8]; oral dosing): up to 24 h
Ktu, partition coefficient tumor ([8]; patient-derived primary pancreatic adenocarcinoma explants in SCID mice): 0.480
PK (AUC) given alone versus in combination ([8]; student's t test of AUCs from each study, mice): no statistically significant difference
Structure (SMILES): CO[C@H]1C[C@@H]2CC[C@@H](C)[C@@](O)(O2)C(=O)C(=O)N2CCCC[C@H]2C(=O)O[C@H]([C@H](C)C[C@@H]2CC[C@@H](OCCO)[C@H](OC)C2)CC(=O)[C@H](C)/C=C(\C)[C@@H](O)[C@@H](OC)C(=O)[C@H](C)C[C@H](C)/C=C/C=C/C=C/1C [everolimus, Everolimus]
Fa, fraction absorbed [5]: 0.12
Bioavailability [5]: 5%
Fraction of dose absorbed [5]: 12%
log P [9]: 5.9
Increase of everolimus AUC ([10]; concomitant strong CYP inhibitor ketoconazole, humans): 15 fold
Increase of everolimus AUC ([10]; moderate CYP inhibitors erythromycin, verapamil, cyclosporine): 2.7–4.5 fold
Change in everolimus AUC ([10]; weak inhibitor atorvastatin): no change
